Source: patent US20260216294A1, “BETA 2-ADRENERGIC RECEPTOR AGONISTS FOR TREATMENT OR PREVENTION OF MUSCLE WASTING” (ATROGI AB, priority 2023, published 2026)

How the values were obtained:
L6-myotubes [1] = test: Measurement of intracellular cAMP levels in differentiated L6-myotubes (Biological Example 3); format: cell-based; conditions: for Emax at 10 µM: 0.25 h
Protocol: (§1) Compounds described in publications referenced and incorporated herein were screened in accordance with the procedures outlined in Biological example 2 and Biological example 3.
Differentiated L6-myotubes were serum-starved overnight and stimulated with isoprenaline or the test compound with a final concentration of 1×10^−5 M, for 15 min in stimulation buffer (HBSS supplemented with 1% BSA, 5 mM HEPES and 1 mM IBMX, pH 7.4). The medium was aspirated and 100 μL of 95% EtOH was added to each well of the 24-well plate and cells were kept at −20° C. overnight. The EtOH was allowed to evaporate and 500 μL of lysis buffer (1% BSA, 5 mM HEPES and 0.3% Tween-20, pH 7.4) was added to each well. The plate was kept at −80° C. for 30 min and then at −20° C. until the day of detection when the samples were thawed. Intracellular cAMP levels were detected using an alpha screen cAMP kit (6760635D from Perkin Elmer).

L6-myotubes [2] = test: Glucose uptake in differentiated L6-myotubes (Biological Example 2); format: cell-based; conditions: for Emax at 10 µM: read-out: Biological example 2 (GU)
Protocol: as §1
Differentiated L6-myotubes were serum-starved overnight in medium containing 0.5% fatty-acid free BSA and stimulated with isoprenaline or the test compound, with a final concentration of 1×10^−5 M. After 1 h 40 min the cells were washed with warm glucose free medium or PBS twice and another portion of agonist was added to the glucose free medium. After 20 min the cells were exposed to 50 nM ^3H-2-deoxyglucose for 10 min before washed with ice cold glucose free medium or PBS three times and lysed with 0.2 M NaOH, 400 μL/well, for 1 h at 60° C. The cell lysate was mixed with 4 mL scintillation buffer (Emulsifier Safe, Perkin Elmer) and the radioactivity was detected in a […] (Tri-Carb 4810TR, Perkin Elmer).

[3] = intracellular cAMP in differentiated L6-myotubes, compound at 10 μM, activity relative to isoproterenol at 10 μM
[4] = glucose uptake in differentiated L6-myotubes, compound at 10 μM, activity relative to isoproterenol at 10 μM
[5] = intracellular cAMP, compound at 10 μM relative to isoproterenol at 10 μM
[6] = glucose uptake, compound at 10 μM relative to isoproterenol at 10 μM

| Structure (SMILES) | Emax at 10 µM (L6-myotubes [1]; [3]) [%] | Emax at 10 µM (L6-myotubes [2]; [4]) [%] | further results |
| --- | --- | --- | --- |
| CC(C)CS(=O)(=O)N[C@H]1CC[C@H](CC(C)(C)NC[C@H](O)c2cncc(F)c2)CC1 [Compound 526] | < 25 | 50 to 75 |  |
| COC(=O)[C@H]1CC[C@@H](CC(C)(C)NC[C@H](O)c2cncc(F)c2)CC1 [Compound 322, methyl (1S,4s)-4-{2-[(R)-2-(5-fluoro-3-pyridyl)-2-hydroxyethylamino]-2-methylpropyl} cyclohexanecarboxylate] | < 25 | > 75 |  |
| Oc1ccc(C(O)CNCCC2CCCCC2)cc1 (stereo not shown) [Compound 16, 2-(2-cyclohexylethylamino)-1-(p-hydroxyphenyl)-1-ethanol] |  |  | Emax at 10 µM (L6-myotubes [1]; [5]): < 25%; Emax at 10 µM (L6-myotubes [2]; [6]): 25 to 50% |
| CC(C)(C[C@H]1CC[C@H](C(=O)O)CC1)NC[C@H](O)c1cncc(F)c1 [Compound 356, (1R,4r)-4-{2-[(R)-2-(5-fluoro-3-pyridyl)-2-hydroxyethylamino]-2-methylpropyl} cyclohexanecarboxylic acid] | < 25 | < 25 |  |
| O[C@H](c1cncc(F)c1)C12CCC(CCc3ccc(OC(F)(F)F)cc3)(CC1)N2 [Compound 545, (R)-(5-fluoro-3-pyridyl){4-[2-(p-trifluoromethoxyphenyl)ethyl]-7-azabicyclo[[2.2.1]]hept-1-yl}methanol] | < 25 | < 25 |  |
| O[C@@H](c1cccc(F)c1)C12CCC(CCc3ccc(OC(F)(F)F)cc3)(CC1)N2 [Compound 544, (S)-(m-fluorophenyl){4-[2-(p-trifluoromethoxyphenyl)ethyl]-7-azabicyclo[[2.2.1]]hept-1-yl}methanol] | < 25 | < 25 |  |
| CC(C)(C[C@H]1CC[C@H](NS(C)(=O)=O)CC1)NC[C@H](O)c1cccc(F)c1 [Compound 382] | 25 to 50 | > 75 |  |
| CCCCNCC(O)c1cc(F)c(N)c(F)c1 (stereo not shown) [Compound 37, 1-(4-amino-3,5-difluorophenyl)-2-(butylamino)-1-ethanol] |  |  | Emax at 10 µM (L6-myotubes [1]; [5]): > 75%; Emax at 10 µM (L6-myotubes [2]; [6]): > 75% |
| CO[C@H]1CC[C@H](C[C@H]2CC[C@H]([C@@H](O)c3ccccc3F)N2)CC1 [Compound 338, (S)-[(2R,5R)-5-{[(1r,4R)-4-methoxycyclohexyl]methyl}-2-pyrrolidinyl](o-fluorophenyl)methanol] | < 25 | 50 to 75 |  |
| CS(=O)(=O)Nc1cccc(CC23CCC([C@@H](O)c4cccc(F)c4)(CC2)N3)c1 [Compound 514, (S)-(m-fluorophenyl)(4-{[m-(mesylamino)phenyl]methyl}-7-azabicyclo[[2.2.1]]hept-1-yl)methanol] | < 25 | 50 to 75 |  |
| CC(C)(CC[C@H]1CC[C@H](C(=O)O)CC1)NC[C@H](O)c1cncc(F)c1 [Compound 343, (1R,4r)-4-{3-[(R)-2-(5-fluoro-3-pyridyl)-2-hydroxyethylamino]-3-methylbutyl} cyclohexanecarboxylic acid] | < 25 | 25 to 50 |  |
| CC(C)(NC[C@H](O)c1cccc(F)c1)[C@H]1CC[C@H](OCC(=O)O)CC1 [Compound 402] | < 25 | 50 to 75 |  |
| CC(C)(C)NC[C@H](O)c1cccc(N)c1F [Compound 91, (R)-1-(3-amino-2-fluorophenyl)-2-(tert-butylamino)-1-ethanol] |  |  | Emax at 10 µM (L6-myotubes [1]; [5]): 25 to 50%; Emax at 10 µM (L6-myotubes [2]; [6]): > 75% |
| CCC[C@@H]1CC[C@H]([C@H](O)c2ccccc2Cl)N1 [Compound 148, (R)-[(2R,5R)-5-propyl-2-pyrrolidinyl](o-chlorophenyl)methanol] |  |  | Emax at 10 µM (L6-myotubes [1]; [5]): < 25%; Emax at 10 µM (L6-myotubes [2]; [6]): > 75% |
| O[C@@H](c1cncc(F)c1)C12CCC(C/C=C/c3ccccc3)(CC1)N2 [Compound 529, (S)-{4-[(E)-3-phenyl-2-propenyl]-7-azabicyclo[[2.2.1]]hept-1-yl}(5-fluoro-3-pyridyl)methanol] | < 25 | 25 to 50 |  |
| O=C(N[C@H]1CC[C@H](CNC[C@H](O)c2cncc(F)c2)CC1)c1ccccc1 [Compound 317] | < 25 | 50 to 75 |  |
| CC(=O)N(Cc1ccccc1)[C@H]1CC[C@@H](C[C@@H]2CC[C@H]([C@H](O)c3cccc(F)c3)N2)CC1 [Compound 480, N-[(1R,4s)-4-({(2S,5R)-5-[(R)-(m-fluorophenyl) hydroxymethyl]-2-pyrrolidinyl}methyl)cyclohexyl]-N-benzylacetamide] | < 25 | < 25 |  |

| Structure (SMILES) | Emax at 10 µM (L6-myotubes [1]; [3]) [%] | Emax at 10 µM (L6-myotubes [2]; [4]) [%] | further results |
| --- | --- | --- | --- |
| CS(=O)(=O)N(Cc1ccccc1)[C@H]1CC[C@H](C[C@@H]2CC[C@H]([C@@H](O)c3cccc(F)c3)N2)CC1 [Compound 503, (S)-[(2R,5S)-5-({(1r,4S)-4-[(benzyl)-N-mesylamino]cyclohexyl}methyl)-2-pyrrolidinyl](m-fluorophenyl)methanol] | < 25 | < 25 |  |
| CC1(C)CCC[C@@H]([C@H](O)c2ccccc2F)N1 [Compound 193] |  |  | Emax at 10 µM (L6-myotubes [1]; [5]): 25 to 50%; Emax at 10 µM (L6-myotubes [2]; [6]): > 75% |
| CCC[C@@H]1CC[C@H](C(O)c2cccc(O)c2)N1 (stereo in doubt) [Compound 57, m-{(R)-[(2R,5R)-5-propyl-2-pyrrolidinyl] hydroxymethyl}phenol] |  |  | Biological example 3 (CAMP) (L6-myotubes [1]; [5]): ++ (if it is between 75 and 50% it is denoted with ++); Biological example 2 (GU) (L6-myotubes [2]; [6]): +++ (If a compound at 10 μM shows activity of more than 75% of that of isoproterenol at 10 μM, the activity is denoted with +++) |
| CO[C@H]1CC[C@H](C(C)(C)NC[C@H](O)c2cccc(F)c2)CC1 [Compound 239, (R)-1-(m-fluorophenyl)-2-{1-methyl-1-[(1r,4R)-4-methoxycyclohexyl]ethylamino}-1-ethanol] | < 25 | > 75 |  |
| CCC[C@H]1CC[C@@H]([C@@H](O)c2cccc(F)c2)N1 [Compound 131, (S)-[(2S,5S)-5-propyl-2-pyrrolidinyl](m-fluorophenyl)methanol] |  |  | Emax at 10 µM (L6-myotubes [1]; [5]): < 25%; Emax at 10 µM (L6-myotubes [2]; [6]): 50 to 75% |
| CC(C)(C[C@H]1CC[C@@H](S(N)(=O)=O)CC1)NC[C@H](O)c1cccc(F)c1 [Compound 517, (1S,4s)-4-{2-[(R)-2-(m-fluorophenyl)-2-hydroxyethylamino]-2-methylpropyl} cyclohexanesulfonamide] | < 25 | 25 to 50 |  |
| CC(C)(CC[C@H]1CC[C@@H](C(=O)O)CC1)NC[C@H](O)c1cccc(F)c1 [Compound 352, (1S,4s)-4-{3-[(R)-2-(m-fluorophenyl)-2-hydroxyethylamino]-3-methylbutyl} cyclohexanecarboxylic acid] | < 25 | 25 to 50 |  |
| CC(=O)N[C@H]1CC[C@H](CCC(C)(C)NC[C@H](O)c2cncc(F)c2)CC1 [Compound 361, N-[(1R,4r)-4-{3-[(R)-2-(5-fluoro-3-pyridyl)-2-hydroxyethylamino]-3-methylbutyl}cyclohexyl] acetamide] | < 25 | > 75 |  |
| O[C@H](c1cccc(F)c1)C12CCC(Cc3ccc(F)cc3)(CC1)N2 [Compound 413, (R)-(m-fluorophenyl){4-[(p-fluorophenyl)methyl]-7-azabicyclo[[2.2.1]]hept-1-yl}methanol] | < 25 | > 75 |  |
| CO[C@H]1CC[C@H](CCCNC[C@H](O)c2cncc(F)c2)CC1 [Compound 261, (R)-1-(5-fluoro-3-pyridyl)-2-{3-[(1r,4S)-4-methoxycyclohexyl]propylamino}-1-ethanol] | < 25 | < 25 |  |
| CC(=O)N[C@H]1CC[C@H](C(C)(C)NC[C@H](O)c2cccc(F)c2)CC1 [Compound 386, N-[(1R,4r)-4-{1-[(R)-2-(m-fluorophenyl)-2-hydroxyethylamino]-1-methylethyl}cyclohexyl] acetamide] | < 25 | > 75 |  |
| CN([C@H]1CC[C@H](CC(C)(C)NC[C@H](O)c2cccc(F)c2)CC1)S(C)(=O)=O [Compound 499, (R)-2-{1,1-dimethyl-2-[(1r,4R)-4-(N-mesyl-N-methylamino)cyclohexyl]ethylamino}-1-(m-fluorophenyl)-1-ethanol] |  | 25 to 50 |  |
| O[C@@H](c1ccccc1F)C12CCC(CCc3cccnc3)(CC1)N2 [Compound 547, (S)-(o-fluorophenyl){4-[2-(3-pyridyl)ethyl]-7-azabicyclo[[2.2.1]]hept-1-yl}methanol] |  | > 75 |  |
| Oc1ccc(C(O)CNCCCC(F)(F)F)cc1 (stereo not shown) [Compound 31, 1-(p-hydroxyphenyl)-2-(4,4,4-trifluorobutylamino)-1-ethanol] |  |  | Emax at 10 µM (L6-myotubes [2]; [6]): 50 to 75% |
| CC(C)NCC(O)c1ccc(O)c(O)c1 (stereo not shown) [isoprenaline, reference compound] |  |  | glucose uptake (L6-myotubes [2]; L6-myotubes, FIGS. 2a-2d): full glucose uptake response |
| CCCCNCC(O)c1ccc(O)cc1 (stereo not shown) [Compound 1, 2-(butylamino)-1-(p-hydroxyphenyl)-1-ethanol] |  |  | Emax at 10 µM (L6-myotubes [2]; [6]): > 75% |
